Reference: ChEMBL document CHEMBL4041516, “SAR study of 5-alkynyl substituted quinazolin-4(3H)-ones as phosphoinositide 3-kinase delta (PI3Kδ) inhibitors” (Eur J Med Chem, 2017)

Assays:
SU-DHL10 = test: Antiproliferative activity against human SU-DHL10 cells measured after 72 hrs by alamar blue assay; type: functional, cell-based; details: SU-DHL10, 72 h
KARPAS-422 = test: Antiproliferative activity against human KARPAS422 cells measured after 72 hrs by alamar blue assay; type: functional, cell-based; details: KARPAS-422, 72 h
SU-DHL-6 = test: Antiproliferative activity against human SUDHL6 cells measured after 72 hrs by alamar blue assay; type: functional, cell-based; details: SU-DHL-6, 72 h
MOLT-4 = test: Antiproliferative activity against human MOLT4 cells measured after 72 hrs by alamar blue assay; type: functional, cell-based; details: MOLT-4, 72 h
NAMALVA = test: Antiproliferative activity against human NAMALWA cells measured after 72 hrs by alamar blue assay; type: functional, cell-based
[1] = Antiproliferative activity against human WSU-DLCL2 cells measured after 72 hrs by alamar blue assay; type: functional, cell-based; details: WSUDLCL2, 72 h
Pfeiffer = test: Antiproliferative activity against human Pfeiffer cells measured after 72 hrs by alamar blue assay; type: functional, cell-based
HT = test: Antiproliferative activity against human HT cells measured after 72 hrs by alamar blue assay; type: functional, cell-based
SU-DHL-1 = test: Antiproliferative activity against human SU-DHL1 cells measured after 72 hrs by alamar blue assay; type: functional, cell-based; details: SU-DHL-1, 72 h
[2] = target: T1, Phosphatidylinositol 4,5-bisphosphate 3-kinase catalytic subunit delta isoform (Homo sapiens, UniProt O00329); test: Inhibition of PI3Kdelta (unknown origin) using PIP2 as substrate measured after 30 mins by HTRF assay
T1 sequence (O00329 whole entry): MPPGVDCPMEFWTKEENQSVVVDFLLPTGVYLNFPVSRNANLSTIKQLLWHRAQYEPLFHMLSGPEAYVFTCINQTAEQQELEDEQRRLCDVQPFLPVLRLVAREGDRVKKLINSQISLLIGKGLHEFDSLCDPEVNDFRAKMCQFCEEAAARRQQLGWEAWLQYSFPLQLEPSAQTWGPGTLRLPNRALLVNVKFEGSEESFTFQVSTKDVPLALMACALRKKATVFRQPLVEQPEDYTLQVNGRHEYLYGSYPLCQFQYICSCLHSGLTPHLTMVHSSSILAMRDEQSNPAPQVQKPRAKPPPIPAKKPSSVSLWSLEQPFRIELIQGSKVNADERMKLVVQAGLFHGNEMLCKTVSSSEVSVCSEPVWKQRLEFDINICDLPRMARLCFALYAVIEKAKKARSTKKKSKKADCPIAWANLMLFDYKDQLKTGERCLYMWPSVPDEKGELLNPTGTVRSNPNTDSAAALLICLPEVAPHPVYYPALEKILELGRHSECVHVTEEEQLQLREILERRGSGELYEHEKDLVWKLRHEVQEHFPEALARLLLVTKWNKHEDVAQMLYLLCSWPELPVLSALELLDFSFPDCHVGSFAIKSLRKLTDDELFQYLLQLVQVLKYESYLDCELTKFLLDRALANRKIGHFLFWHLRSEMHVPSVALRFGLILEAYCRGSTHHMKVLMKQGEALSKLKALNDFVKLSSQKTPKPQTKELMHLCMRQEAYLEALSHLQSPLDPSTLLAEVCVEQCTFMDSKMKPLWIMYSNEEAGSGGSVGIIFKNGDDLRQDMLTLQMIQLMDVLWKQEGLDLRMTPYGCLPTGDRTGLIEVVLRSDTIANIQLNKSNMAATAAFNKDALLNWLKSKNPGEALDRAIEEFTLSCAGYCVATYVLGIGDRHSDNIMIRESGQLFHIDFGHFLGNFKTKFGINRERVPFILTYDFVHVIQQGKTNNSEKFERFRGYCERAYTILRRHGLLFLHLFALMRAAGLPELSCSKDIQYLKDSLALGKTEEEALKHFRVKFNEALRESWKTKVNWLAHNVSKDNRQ

[3] = target: Phosphatidylinositol 4,5-bisphosphate 3-kinase catalytic subunit beta isoform (Homo sapiens, UniProt P42338); test: Inhibition of PI3Kbeta (unknown origin) using PIP2 as substrate measured after 30 mins by HTRF assay
[4] = target: Phosphatidylinositol 4,5-bisphosphate 3-kinase catalytic subunit gamma isoform (Homo sapiens, UniProt P48736); test: Inhibition of PI3Kgamma (unknown origin) using PIP2 as substrate measured after 30 mins by HTRF assay
[5] = target: T2, Voltage-gated inwardly rectifying potassium channel KCNH2 (Homo sapiens, UniProt Q12809); test: (§1) Inhibition of human ERG at 40 uM relative to control; details: 40 µM
SUD4 = test: Antiproliferative activity against human SU-DHL4 cells measured after 72 hrs by alamar blue assay; type: functional, cell-based; details: SU-DHL-4, 72 h
[6] = target: Phosphatidylinositol 4,5-bisphosphate 3-kinase catalytic subunit alpha isoform (Homo sapiens, UniProt P42336); test: Inhibition of PI3Kalpha (unknown origin) using PIP2 as substrate measured after 30 mins by HTRF assay
[7] = target: T2, Voltage-gated inwardly rectifying potassium channel KCNH2; test: Inhibition of human ERG
hERG (KCNH2) = hERG (KCNH2) (Homo sapiens, UniProt Q12809); test: as §1

T2 sequence (Q12809 whole entry): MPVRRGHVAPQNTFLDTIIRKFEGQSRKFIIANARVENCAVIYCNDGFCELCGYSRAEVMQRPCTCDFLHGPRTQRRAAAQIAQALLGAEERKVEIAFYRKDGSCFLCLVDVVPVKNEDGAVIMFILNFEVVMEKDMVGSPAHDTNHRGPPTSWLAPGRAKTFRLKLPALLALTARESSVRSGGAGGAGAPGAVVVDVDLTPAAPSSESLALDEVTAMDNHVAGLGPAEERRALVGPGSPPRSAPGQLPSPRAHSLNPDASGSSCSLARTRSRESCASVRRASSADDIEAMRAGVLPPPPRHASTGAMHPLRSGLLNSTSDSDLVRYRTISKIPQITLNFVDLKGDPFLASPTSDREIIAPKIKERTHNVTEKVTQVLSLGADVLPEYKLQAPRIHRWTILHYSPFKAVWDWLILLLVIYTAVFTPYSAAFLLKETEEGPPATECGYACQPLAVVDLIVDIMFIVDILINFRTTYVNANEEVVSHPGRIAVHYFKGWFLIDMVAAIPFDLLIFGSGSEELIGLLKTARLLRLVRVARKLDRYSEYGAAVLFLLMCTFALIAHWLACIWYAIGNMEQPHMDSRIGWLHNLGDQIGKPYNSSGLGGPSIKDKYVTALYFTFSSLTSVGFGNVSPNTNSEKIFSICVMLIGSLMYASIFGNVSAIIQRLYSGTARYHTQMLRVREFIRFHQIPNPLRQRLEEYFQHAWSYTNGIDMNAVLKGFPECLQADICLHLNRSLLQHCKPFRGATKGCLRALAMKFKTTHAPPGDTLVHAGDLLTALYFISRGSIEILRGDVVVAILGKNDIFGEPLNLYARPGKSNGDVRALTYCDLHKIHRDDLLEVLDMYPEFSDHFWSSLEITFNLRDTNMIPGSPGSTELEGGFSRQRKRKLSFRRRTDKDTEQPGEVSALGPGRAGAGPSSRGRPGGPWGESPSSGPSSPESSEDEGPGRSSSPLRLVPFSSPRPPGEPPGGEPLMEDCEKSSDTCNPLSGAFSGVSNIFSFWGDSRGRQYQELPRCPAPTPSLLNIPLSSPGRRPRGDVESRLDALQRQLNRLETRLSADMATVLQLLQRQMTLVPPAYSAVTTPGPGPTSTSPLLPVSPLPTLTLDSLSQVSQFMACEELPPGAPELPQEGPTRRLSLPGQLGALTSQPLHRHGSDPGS
Chain of Phosphatidylinositol 4,5-bisphosphate 3-kinase catalytic subunit alpha isoform (P42336 whole entry, canonical isoform): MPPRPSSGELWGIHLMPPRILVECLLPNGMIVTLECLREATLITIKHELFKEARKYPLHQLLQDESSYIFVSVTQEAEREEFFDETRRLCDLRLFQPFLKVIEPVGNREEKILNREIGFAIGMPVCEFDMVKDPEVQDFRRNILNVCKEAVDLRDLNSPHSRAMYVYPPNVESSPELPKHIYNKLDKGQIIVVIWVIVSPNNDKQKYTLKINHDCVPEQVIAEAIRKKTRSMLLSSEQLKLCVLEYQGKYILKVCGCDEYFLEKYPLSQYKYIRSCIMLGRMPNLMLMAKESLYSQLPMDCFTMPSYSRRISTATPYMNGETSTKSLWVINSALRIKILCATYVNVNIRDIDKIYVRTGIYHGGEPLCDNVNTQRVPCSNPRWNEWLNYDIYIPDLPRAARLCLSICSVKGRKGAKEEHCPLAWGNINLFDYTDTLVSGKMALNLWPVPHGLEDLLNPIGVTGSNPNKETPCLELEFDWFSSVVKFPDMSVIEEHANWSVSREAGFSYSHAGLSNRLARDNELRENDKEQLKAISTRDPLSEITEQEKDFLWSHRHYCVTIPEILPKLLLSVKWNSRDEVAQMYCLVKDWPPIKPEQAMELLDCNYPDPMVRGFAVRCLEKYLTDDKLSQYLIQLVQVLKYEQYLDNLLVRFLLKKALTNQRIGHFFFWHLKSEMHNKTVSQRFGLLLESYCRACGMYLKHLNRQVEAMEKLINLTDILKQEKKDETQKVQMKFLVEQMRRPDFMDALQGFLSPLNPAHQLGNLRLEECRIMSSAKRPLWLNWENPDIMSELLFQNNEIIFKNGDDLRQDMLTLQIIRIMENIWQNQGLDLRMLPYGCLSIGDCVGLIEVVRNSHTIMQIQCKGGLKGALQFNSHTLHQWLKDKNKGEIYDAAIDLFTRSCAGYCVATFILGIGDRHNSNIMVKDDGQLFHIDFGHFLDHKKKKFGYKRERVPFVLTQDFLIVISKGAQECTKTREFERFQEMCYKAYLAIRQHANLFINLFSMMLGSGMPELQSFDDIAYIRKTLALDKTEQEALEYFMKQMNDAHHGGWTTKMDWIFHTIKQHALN
Chain of Phosphatidylinositol 4,5-bisphosphate 3-kinase catalytic subunit gamma isoform (P48736 whole entry, canonical isoform): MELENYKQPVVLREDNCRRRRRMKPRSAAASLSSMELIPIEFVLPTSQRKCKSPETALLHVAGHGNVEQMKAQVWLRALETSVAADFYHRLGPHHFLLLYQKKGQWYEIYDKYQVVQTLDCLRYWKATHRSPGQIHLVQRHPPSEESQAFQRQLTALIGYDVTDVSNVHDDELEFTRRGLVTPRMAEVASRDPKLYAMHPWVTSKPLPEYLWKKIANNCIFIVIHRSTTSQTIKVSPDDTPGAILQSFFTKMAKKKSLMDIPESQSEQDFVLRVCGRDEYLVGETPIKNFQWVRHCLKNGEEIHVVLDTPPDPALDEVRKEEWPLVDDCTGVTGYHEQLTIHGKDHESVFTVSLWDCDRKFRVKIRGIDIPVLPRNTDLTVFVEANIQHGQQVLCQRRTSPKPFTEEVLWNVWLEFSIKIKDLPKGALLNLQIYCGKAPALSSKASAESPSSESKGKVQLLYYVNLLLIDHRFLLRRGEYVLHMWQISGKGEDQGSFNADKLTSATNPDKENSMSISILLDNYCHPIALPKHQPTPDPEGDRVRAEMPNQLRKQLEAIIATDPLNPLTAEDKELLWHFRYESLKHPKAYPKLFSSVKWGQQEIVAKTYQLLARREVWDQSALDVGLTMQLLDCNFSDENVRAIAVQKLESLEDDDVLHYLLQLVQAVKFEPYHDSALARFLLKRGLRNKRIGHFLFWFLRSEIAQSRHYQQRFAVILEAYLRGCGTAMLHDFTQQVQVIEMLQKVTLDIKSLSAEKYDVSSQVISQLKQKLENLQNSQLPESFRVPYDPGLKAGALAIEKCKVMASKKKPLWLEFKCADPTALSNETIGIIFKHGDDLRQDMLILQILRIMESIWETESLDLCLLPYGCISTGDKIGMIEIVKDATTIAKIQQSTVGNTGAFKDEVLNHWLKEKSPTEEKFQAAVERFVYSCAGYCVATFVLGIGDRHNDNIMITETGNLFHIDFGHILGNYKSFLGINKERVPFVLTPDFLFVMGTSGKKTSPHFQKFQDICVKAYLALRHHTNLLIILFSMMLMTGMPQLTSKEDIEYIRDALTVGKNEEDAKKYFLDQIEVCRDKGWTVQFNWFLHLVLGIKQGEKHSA
Chain of Phosphatidylinositol 4,5-bisphosphate 3-kinase catalytic subunit beta isoform (P42338 whole entry, canonical isoform): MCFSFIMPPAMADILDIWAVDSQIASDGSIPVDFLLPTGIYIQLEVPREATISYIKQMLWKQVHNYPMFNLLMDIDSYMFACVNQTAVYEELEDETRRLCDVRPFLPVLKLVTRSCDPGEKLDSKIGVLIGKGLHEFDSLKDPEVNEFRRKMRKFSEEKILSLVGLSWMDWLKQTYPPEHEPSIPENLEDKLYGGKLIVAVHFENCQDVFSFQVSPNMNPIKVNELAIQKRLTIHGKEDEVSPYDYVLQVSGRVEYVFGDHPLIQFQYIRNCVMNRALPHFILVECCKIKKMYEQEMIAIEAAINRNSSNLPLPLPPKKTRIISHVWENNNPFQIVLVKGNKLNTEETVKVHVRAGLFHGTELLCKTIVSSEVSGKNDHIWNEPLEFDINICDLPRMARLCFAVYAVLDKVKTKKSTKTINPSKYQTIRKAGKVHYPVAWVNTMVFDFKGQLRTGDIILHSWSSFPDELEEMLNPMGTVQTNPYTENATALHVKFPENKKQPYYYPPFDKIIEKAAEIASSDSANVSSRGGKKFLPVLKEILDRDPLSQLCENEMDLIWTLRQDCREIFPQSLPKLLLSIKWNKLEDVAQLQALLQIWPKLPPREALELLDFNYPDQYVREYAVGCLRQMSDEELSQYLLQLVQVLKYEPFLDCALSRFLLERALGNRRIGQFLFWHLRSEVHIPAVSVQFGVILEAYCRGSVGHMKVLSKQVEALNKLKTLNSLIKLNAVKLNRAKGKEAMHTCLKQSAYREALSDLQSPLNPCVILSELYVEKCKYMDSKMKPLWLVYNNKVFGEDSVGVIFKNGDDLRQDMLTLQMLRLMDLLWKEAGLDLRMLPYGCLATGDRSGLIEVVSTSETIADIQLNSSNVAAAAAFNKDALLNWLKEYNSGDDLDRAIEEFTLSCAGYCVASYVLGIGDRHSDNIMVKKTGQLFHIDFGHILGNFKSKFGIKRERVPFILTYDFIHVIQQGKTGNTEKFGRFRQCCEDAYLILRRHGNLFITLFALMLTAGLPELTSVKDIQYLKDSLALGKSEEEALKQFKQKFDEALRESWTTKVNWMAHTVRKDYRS

SMILES | IC50 (SU-DHL-6) | IC50 [2] | further results
CC[C@H](Nc1ncnc2[nH]cnc12)c1nc2cccc(F)c2c(=O)n1-c1ccccc1 [IDELALISIB] | 118 nM | – | IC50 (SU-DHL10): > 10000 nM; IC50 (KARPAS-422): 8100 nM; IC50 (MOLT-4): > 10000 nM; IC50 (NAMALVA): > 10000 nM; IC50 [1]: > 10000 nM; IC50 (Pfeiffer): 6800 nM; IC50 (HT): > 10000 nM; IC50 (SU-DHL-1): > 10000 nM
N#Cc1c(N)ncnc1N1CC[C@H]1c1nc2cccc(C#CCCCC(=O)N3CCOCC3)c2c(=O)n1-c1ccccc1 | 7320 nM | 620 nM | –
CC(COC(F)F)N1CCN(CC#Cc2cccc3nc([C@@H]4CCCN4c4ncnc(N)c4C#N)n(-c4ccccc4)c(=O)c23)CC1 (some centres not stated) | 2000 nM | 188 nM | –
N#Cc1c(N)ncnc1N1CCC[C@H]1c1nc2cccc(C#CCN3C[C@@H]4C[C@H]3CN4)c2c(=O)n1-c1ccccc1 | 1260 nM | 135 nM | –
CC(C)N1CCN(Cc2cnc(C#Cc3cccc4nc([C@@H]5CCCN5c5ncnc(N)c5C#N)n(-c5ccccc5)c(=O)c34)s2)CC1 | 1150 nM | > 300 nM | –
Cc1nc(N)nc(N2CC[C@H]2c2nc3cccc(C#CCCCC(=O)N4CCOCC4)c3c(=O)n2-c2ccccc2)c1C#N | 640 nM | 16.8 nM | –
N#Cc1c(N)ncnc1N1CCC[C@H]1c1nc2cccc(C#CCN3CCC(C4CC(F)C4)CC3)c2c(=O)n1-c1ccccc1 (some centres not stated) | 526 nM | 78.1 nM | –
N#Cc1c(N)ncnc1N1CCC[C@H]1c1nc2cccc(C#CCN3CCC(C4CC(F)(F)C4)CC3)c2c(=O)n1-c1ccccc1 | 724 nM | 141 nM | –
N#Cc1c(N)ncnc1N1CCC[C@H]1c1nc2cccc(C#Cc3cccs3)c2c(=O)n1-c1ccccc1 | 1680 nM | 41.5 nM | –
Nc1nc(N)nc(N2CCC[C@H]2c2nc3cccc(C#CCCCC(=O)N4CCOCC4)c3c(=O)n2-c2ccccc2)n1 | > 10000 nM | > 300 nM | –
Cc1nc(N)nc(N2CC[C@H]2c2nc3cccc(C#CCCCC(=O)N4CCCC4)c3c(=O)n2-c2ccccc2)c1C#N | 862 nM | 19.6 nM | –
Cc1nc(N)nc(N2CCC[C@H]2c2nc3cccc(C#CCCCC(=O)N4CCCC4)c3c(=O)n2-c2ccccc2)c1C#N | 58.9 nM | 7.1 nM | IC50 (SU-DHL10): 4500 nM; IC50 (KARPAS-422): 4300 nM; IC50 [3]: 2020 nM; IC50 (MOLT-4): 6700 nM; IC50 (NAMALVA): 5900 nM; IC50 [4]: 132 nM; inhibition (INH) [5]: Nd(Insoluble); IC50 [1]: > 10000 nM; IC50 (SUD4): 4000 nM; IC50 [6]: 1480 nM; IC50 (Pfeiffer): 4400 nM; IC50 [7]: Nd(Insoluble); IC50 (HT): > 10000 nM; IC50 (SU-DHL-1): > 10000 nM
N#Cc1c(N)ncnc1N1CCC[C@H]1c1nc2cccc(C#Cc3cccc(F)c3)c2c(=O)n1-c1ccccc1 | 3860 nM | > 300 nM | –
CC[C@H](Nc1nc(N)nc(N)c1C#N)c1nc2cccc(C#CCCCC(=O)N3CCCC3)c2c(=O)n1-c1ccccc1 | 37.2 nM | 6.73 nM | IC50 (SU-DHL10): 1800 nM; IC50 (KARPAS-422): 2100 nM; IC50 [3]: 530 nM; IC50 (MOLT-4): 6700 nM; IC50 (NAMALVA): 6200 nM; IC50 [4]: 125 nM; inhibition at 40 µM (hERG (KCNH2)): 39.3%; IC50 [1]: 6800 nM; IC50 (SUD4): 1700 nM; IC50 [6]: 624 nM; IC50 (Pfeiffer): 2200 nM; IC50 ([7]; read-out: IC50): > 40000 nM; IC50 (HT): 7900 nM; IC50 (SU-DHL-1): 4900 nM
Cc1nc(N)nc(N2CCC[C@H]2c2nc3cccc(C#CCCCC(=O)N4CCOCC4)c3c(=O)n2-c2ccccc2)c1C#N | 178 nM | 11.8 nM | –
CC[C@H](Nc1nc(N)nc(N)c1C#N)c1nc2cccc(C#CCCCO)c2c(=O)n1-c1ccccc1 | 26.8 nM | 12.2 nM | –
N#Cc1c(N)ncnc1N1CC[C@H]1c1nc2cccc(C#CCCCC(=O)N3CCCC3)c2c(=O)n1-c1ccccc1 | 7840 nM | 440 nM | –
CC[C@H](Nc1ncnc(N)c1C#N)c1nc2cccc(C#CCCCC(=O)N3CCCC3)c2c(=O)n1-c1ccccc1 | 1900 nM | 112 nM | –
CC[C@H](Nc1ncnc(N)c1C#N)c1nc2cccc(C#CCCCC(=O)N3CCOCC3)c2c(=O)n1-c1ccccc1 | 1430 nM | 96.8 nM | –
CCOC(=O)c1cnc(C#Cc2cccc3nc([C@@H]4CCCN4c4ncnc(N)c4C#N)n(-c4ccccc4)c(=O)c23)s1 | > 10000 nM | > 300 nM | –
N#Cc1c(N)ncnc1N1CCC[C@H]1c1nc2cccc(C#Cc3ccccn3)c2c(=O)n1-c1ccccc1 | 1900 nM | > 300 nM | –
N#Cc1c(N)ncnc1N1CCC[C@H]1c1nc2cccc(C#Cc3cccnc3)c2c(=O)n1-c1ccccc1 | 1730 nM | > 300 nM | –
CC[C@H](Nc1ncnc2[nH]cnc12)c1nc2cccc(C#CCCCC(=O)N3CCOCC3)c2c(=O)n1-c1ccccc1 | 1180 nM | 110 nM | –

Further lines, with some results ahead:

IC50 (SU-DHL-6) | IC50 [2] | SMILES | further results
1120 nM | 70 nM | N#Cc1c(N)ncnc1N1CCC[C@H]1c1nc2cccc(C#CC(=O)N3CCOCC3)c2c(=O)n1-c1ccccc1 | –
705 nM | 107 nM | N#Cc1c(N)ncnc1N1CCC[C@H]1c1nc2cccc(C#CCN3CCN(CC4CC4)CC3)c2c(=O)n1-c1ccccc1 | –
339 nM | 67.1 nM | CC(C)(CO)N1CCN(CC#Cc2cccc3nc([C@@H]4CCCN4c4ncnc(N)c4C#N)n(-c4ccccc4)c(=O)c23)CC1 | –
1160 nM | 107 nM | N#Cc1c(N)ncnc1N1CCC[C@H]1c1nc2cccc(C#CCN3CCOCC3)c2c(=O)n1-c1ccccc1 | –
99 nM | 11.5 nM | N#Cc1c(N)ncnc1N1CCC[C@H]1c1nc2cccc(C#CCCCC(=O)N3CCCC3)c2c(=O)n1-c1ccccc1 | –
27.6 nM | 13.8 nM | N#Cc1c(N)ncnc1N1CCC[C@H]1c1nc2cccc(C#CCCCC(=O)N3CCOCC3)c2c(=O)n1-c1ccccc1 | IC50 (SU-DHL10): 2400 nM; IC50 (KARPAS-422): 11600 nM; IC50 [3]: 1650 nM; IC50 (MOLT-4): > 10000 nM; IC50 (NAMALVA): 6000 nM; IC50 [4]: 291 nM; inhibition at 40 µM (hERG (KCNH2)): 61.9%; IC50 [1]: > 10000 nM; IC50 (SUD4): 3900 nM; IC50 [6]: 3110 nM; IC50 (Pfeiffer): 7200 nM; IC50 ([7]; read-out: IC50): 31700 nM; IC50 (HT): > 10000 nM; IC50 (SU-DHL-1): > 10000 nM
1410 nM | 80.2 nM | CC(F)CN1CCN(CC#Cc2cccc3nc([C@@H]4CCCN4c4ncnc(N)c4C#N)n(-c4ccccc4)c(=O)c23)CC1 (some centres not stated) | –
282 nM | 43 nM | CC(C)(C)N1CCN(CC#Cc2cccc3nc([C@@H]4CCCN4c4ncnc(N)c4C#N)n(-c4ccccc4)c(=O)c23)CC1 | –
372 nM | 60.2 nM | C=CC(O)C(C)(C)N1CCN(CC#Cc2cccc3nc([C@@H]4CCCN4c4ncnc(N)c4C#N)n(-c4ccccc4)c(=O)c23)CC1 (some centres not stated) | –
216 nM | 97.7 nM | CC(C)(C)N1CCN(C(=O)C#Cc2cccc3nc([C@@H]4CCCN4c4ncnc(N)c4C#N)n(-c4ccccc4)c(=O)c23)CC1 | –
2820 nM | 170 nM | CC(C)(F)CN1CCN(CC#Cc2cccc3nc([C@@H]4CCCN4c4ncnc(N)c4C#N)n(-c4ccccc4)c(=O)c23)CC1 | –
